Assay results reported in US20160264593A1 (priority 2013, published 2016).

Test: Pharmacokinetic study of 153 (and metabolite endothal) in SD rats, iv and po; plasma, liver, brain
Assay type: in vivo
Conditions: for endothal detectable in brain samples: after single iv 153 at 1.25 mg/kg, 1.25 mg/kg
Protocol: The blood, liver and brain tissue samples were collected at predetermined times from rats. […] Compound were diluted shortly before use in 4% sodium bicarbonate for sterile injection (this is the standard pediatric solution of NaHCO3 with a pH of about 8.5).
Compound 153 was freshly prepared by diluting the drugs shortly before use in 4% sodium bicarbonate for sterile injection (this is the standard pediatric solution of NaHCO3 with a pH of about 8.5). The final concentrations of 153 solutions were 0.25 mg/mL. The 153 solutions were administered via iv or po route at dose volume of 5 ml/kg according to the latest body weight. Compound 157 was freshly prepared by diluting the drugs shortly before use in 4% sodium bicarbonate for sterile injection (this is the standard pediatric solution of NaHCO3 with a pH of about 8.5). The final concentrations of […] solutions were 0.3 mg/mL. The 157 solutions were administered via iv or po route at dose volume of 5 ml/kg according to the latest body weight.
Twelve (12) female SD rats per group were dosed by iv with 153 or 157. The rats were fasted overnight prior to dosing, with free access to water. Foods were withheld for 2 hours post-dose. Blood, liver and brain tissue samples in two animals each group were collected at each time point, within 10% of the scheduled time for each time point. Two extra animals were used for analytic method development.
Blood (>0.3 mL) were collected via aorta abdominalis in anaesthetic animals into tubes containing heparin at 15 min, 1, 2, 6, 10 and 24 hours after iv administration. Liver and brain tissues were collected immediately after animal death. The liver and brain tissues were excised and rinsed with cold saline to avoid blood residual. Upon collection, each sample was placed on ice and the blood samples were subsequently centrifuged (4° C., 11000 rpm, 5 min) to separate plasma. The obtained plasma, liver and brain tissue samples were stored at −70° C. until LC-MS/MS analysis.
Two (2) female SD rats per group were dosed by po with 153 or 157. The rats were fasted overnight prior to dosing, with free access to water. Foods were withheld for 2 hours post-dose. Blood samples (>0.3 mL) were collected via aorta abdominalis in anaesthetic animals into tubes containing heparin at 30 min, 1, 2, 6, 10 and 24 hours after po administration.
To each sample, 20 μL IS-D (for blank samples, 20 μL acetonitrile:water (1:1) was added) and 300 μl acetonitrile was added. The sample mixture was vortexed for approximately 3 min. After centrifugation at 10000 rpm for 5 min at 4° C., 100 μL of the upper layer was transferred to a new tube and added 200 μL 0.4% formic acid in water (pH 6.0). The mixture was vortexed for approximately 3 min before injected onto the LC/MS/MS system for analysis.
On the day of the assay, the frozen liver and brain samples were thawed unassisted at room temperature. An about 200 mg weighed sample of each thawed tissue was placed into a plastic tube with water (0.6 mL) to facilitate homogenization. Tissue processing was conducted using a homogenizer for approximately 1 min, 200 μl homogenate was transferred into a fresh Eppendorf tube. To each tube, 50 μL IS-D was added and mixed. Then 600 μl acetonitrile was added and the sample mixture was vortexed for approximately 3 min. After centrifugation at 10000 rpm for 5 min at 4° C., 400 μL of the upper layer was transferred to a new tube and evaporate the supernatant to dryness at 35° C. Reconstitute the residue with 200 μL of 0.4% formic acid in water (pH6.0), and vortex for 3 min, submit for LC-MS/MS analysis.
Frozen unknown plasma samples were completely thawed at room temperature and vortexed thoroughly. With a pipette, 50 μL of plasma was transferred into a 2.0 mL Eppendorf tube. 50 μL of 0.1N HCl and 800 μL ethyl acetate were added into each sample. The sample mixture was vortexed for approximately 3 min.

O=C(O)C1C2CCC(O2)C1C(=O)O (stereo not drawn) [Endothal, 7-oxabicyclo[2.2.1]heptane-2,3-dicarboxylic acid]
Endothal plasma concentration (after iv 153, 10 hr, Rat 2): BLQ | Endothal plasma concentration (after iv 153, 24 hr, Rat 1): BLQ | Endothal plasma concentration (after iv 153, 24 hr, Rat 2): BLQ | Endothal plasma concentration (after po 153, 10 hr, Rat 1): BLQ | endothal detectable in brain samples: undetectable | endothal detectable in brain samples (listed as endothal): not detectable
